The values below come from US20060269924A1, “Modulation of telomere-initiated cell signaling” (TRUSTEES OF BOSTON UNIVERSITY, priority 2003, published 2006).

{P} = phosphate

For data set [1], the system named is R2F fibroblasts. The experiment in a line: SA-β-Gal staining, R2F fibroblasts. The data set is classed as cell-based, human. The following applies: 40 μM, 1 week. As to the method: (§1) FIG. 12a: Immunoblot analysis of p53DD and cdk4^R24C expression. Cells were collected for protein analysis by western blot using 30 μg total protein and probed for total p53 and cdk4. Lanes 1, 2, 3 and 4 contain protein samples from R2F, R2F (p53DD), R2F (cdk4^R24C) and R2F (p53DD/cdk4^R24C) fibroblasts, respective. β-actin was used as a loading control. FIG. 12b: Contribution of p53 and pRb pathways to T-oligo-induced SA-β-Gal activity. R2F fibroblasts and derived transductants were treated with diluent or 40 μM T-oligo for one week and then assayed for SA-β-Gal activity. FIG. 12c: Quantitative analysis of SA-β-Gal positive cells. Cells expressing SA-β-Gal activity were counted and presented as percentage of total cells in the cultures. Averages and standard deviations were calculated from 3 representative fields from each of 3 independent experiments.
Cells were treated once with diluent alone, 40 μM T-oligo or 40 μM complementary oligo for 1 week without re-feeding. Cells were then fixed for 3-5 minutes in 2% formaldehyde/0.2% glutaraldehyde and incubated at 37° C. […]
(§2) Cells were treated with either diluent or 40 μM T-oligo for 1 week and then assessed for SA-β-Gal activity. […]

Data set [2] deals with p53DD R2F fibroblasts. Put plainly: SA-β-Gal staining, p53DD R2F fibroblasts. The data set is classed as cell-based, human. The following applies: 40 μM, 1 week. As to the method:
as §1
(§3) R2F newborn dermal fibroblasts and derived p53DD, […] and p53DD/cdk4^R24C transductants (a generous gift from Dr. James G. Rheinwald of Harvard Medical School) lack a functional p53 pathway, pRb pathway, and both pathways respectively.
(§4) Cells were treated once with diluent alone, 40 μM T-oligo or 40 μM complementary oligo for 1 week without re-feeding. […]
as §2

Data set [3] deals with cdk4^R24C R2F fibroblasts. Put plainly: SA-β-Gal staining, cdk4^R24C R2F fibroblasts. The format is cell-based, human. The following applies: 40 μM, 1 week. As to the method:
as §1, §3, §4, §2

Data set [4] relates to fibroblasts. The experiment in a line: Degradation of the telomere 3′ overhang in fibroblasts. The data set is classed as cell-based. To be noted: up to 1 week (data not shown).
In data set [5] the test system is p95/Nbs1 phosphorylation. Put plainly: Western blot for phospho-p95/Nbs1 in Saos-2 cells. The format is cell-based. To be noted: 40 μM. As to the method:
FIG. 18a: FACS profiles from one representative experiment of three with the percentage and standard deviations of cells in each phase of the cell cycle was calculated from triplicate cultures of each condition. FIG. 18b: Western blots with an antibody specific for phospho-p95/Nbs1. Lanes 1, 2 and 3 contained protein from cells treated with diluent, 11mer-1 or 11mer-2, respectively. Control cells (3 hours) were irradiated with 10 Gy of IR (+), or were sham irradiated (−).
Saos-2 cells are an osteosarcoma cell line that is reportedly telomerase negative and maintain telomeres by the ALT pathway. Saos-2 cell lines were treated with either diluent or 40 μM of the indicated oligonucleotide and cells were collected after 48 hours for FACS analysis. […] The results that the effect of the T-oligo in the telomerase negative cells is identical to the response in telomerase positive malignant cell lines.

Regarding “pGTTAGGGTTAG (DNA, 5' {P}, backbone not given here; listed as Homo sapiens) [Oligonucleotide 11mer-1]”, the SA-β-Gal positive cells in data set [1] was found to be 65±7%; in data set [2], 45±4%; in data set [3], 60±5%. Besides, in data set [4], the “degradation of the telomere 3′ overhang” value is “does not result in degradation”. The “phosphorylation of p95/Nbs1” value in data set [5] is “induced phosphorylation”.
